Experimental data: patent US20090076201A1, “(METH) ACRYLOYLOXYTETRAHYDROFURANS AND PROCESS FOR PRODUCTION THEREOF” (Mitsubishi Chemical Corporation, priority 2005, published 2009)

Assay: Solubility test in heptane and aqueous solvents at 26° C.
Details: grams of solute dissolved in 100 g of solvent
Method: A solubility test of erythritan monomethacrylate (HOTHFMA) in aqueous solvents shown in the following table was carried out at a temperature of 26° C. In this connection, for the purpose of comparison, data on tetrahydrofurfuryl methacrylate (TFMA) and α-methacryloyl-γ-butyrolactone (GBLMA) are also shown. The numeric values in the table represent grams of individual solutes dissolved in 100 g of each solvent.

## C=C(C)C(=O)OC1COCC1O (stereo not drawn) [HOTHFMA, 3-methacryloyloxy-4-hydroxytetrahydrofuran]
Solvent H2O
  Solubility (26° C.) in H2O: >395 g/100 g solv.
Solvent H2O/MeOH 4/1 (wt)
  Solubility (26° C.) in H2O/MeOH 4/1 (wt): >353 g/100 g solv.
Solvent heptane
  Solubility (26° C.) in Heptane: 1.74 g/100 g solv.
